This passage reports EC50 results from patent US9012456B2, “Compounds, pharmaceutical compositions and uses thereof” (Boehringer Ingelheim International GmbH, priority 2012, dated 2015).

The target of the test is T1, human GPR119 (Homo sapiens, UniProt Q8TDV5).
T1 construct: expressed in transfected cells
T1 sequence (Q8TDV5 1-335): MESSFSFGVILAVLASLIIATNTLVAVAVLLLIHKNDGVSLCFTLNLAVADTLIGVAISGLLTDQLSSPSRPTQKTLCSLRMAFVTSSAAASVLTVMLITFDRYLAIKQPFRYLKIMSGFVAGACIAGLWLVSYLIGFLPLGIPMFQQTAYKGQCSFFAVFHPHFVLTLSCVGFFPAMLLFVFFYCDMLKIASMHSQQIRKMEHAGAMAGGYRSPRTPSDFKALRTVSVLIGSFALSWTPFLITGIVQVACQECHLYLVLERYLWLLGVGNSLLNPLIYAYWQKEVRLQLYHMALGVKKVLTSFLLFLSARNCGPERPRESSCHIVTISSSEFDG
In words: AlphaScreen cAMP assay in Min-6/hGPR119 cells (activation of GPR119, stimulation of intracellular cAMP). The format is cell-based. The note with it: MIN6 cells stably transfected with human GPR119; 45 min incubation at room temperature; cAMP by AlphaScreen. As for the experimental part: The compounds of formula I according to the invention modulate the activity of the G-protein-coupled receptor GPR119. The effect of the compounds on the activation of GPR119 and on the stimulation of intracellular cAMP concentration is determined using the AlphaScreen cAMP Assay Kit (Cat. No. #6760625R) made by PerkinElmer.
MIN6 cells [Miyazaki J et al., Endocrinology. 1990 July; 127(1):126-32] are stably transfected with an expression vector for human GPR119 cDNA (Acc. No. NP_848566). Min-6/hGPR119 cells are cultured in DMEM, 10% FBS, 50 μM β-mercaptoethanol, 0.3 mg/mL Geniticin, 2 mM GlutaMAX at 37° C., 5% CO2. For the assay, the cells are seeded in Optiplates (white, 384-well, 160W-barcoded, TC, sterile with lid, Cat. No. #6007688 (Perkin Elmer); 10000 cells/well; 50 μL). The plates covered with lids are then incubated for 24 hours at 37° C., 5% CO2. After the medium is aspirated from the wells completely, 10 μl of the test compound are added, the compounds are diluted using stimulating buffer (140 mM NaCl, 3.6 mM KCl, 0.5 mM NaH2PO4, 0.5 mM MgSO4, 1.5 mM CaCl2, 10 mM Hepes, 5 mM NaHCO3; pH 7.4. 0.5 mM IBMX and 0.1% BSA, the final DMSO concentration is 1%). After 45 minutes incubation at room temperature (approx. 20° C.), the cAMP concentrations are determined using the AlphaScreen cAMP Assay Kit (Cat. No. #6760625R from PerkinElmer).
A word on the EC50: it is the concentration giving half of the maximal effect. Lower therefore signals higher potency in that assay. The compound `CC(C)(C)OC(=O)N1CCC(C)(c2cc3cc(C4=CCN(S(C)(=O)=O)CC4)ncc3o2)CC1` [Example 28, 4-[5-(1-Methanesulfonyl-1,2,3,6-tetrahydro-pyridin-4-yl)-furo[2,3-c]pyridin-2-yl]-4-methyl-piperidine-1-carboxylic acid tert-butyl ester] had an EC50 of 0.073 µM. `CS(=O)(=O)c1ccc(-c2cc3cc(C4CCN(CC5(C(F)(F)F)CC5)CC4)oc3cn2)c(F)c1` [Example 17, 5-(2-Fluoro-4-methanesulfonyl-phenyl)-2-[1-(1-trifluoromethyl-cyclopropylmethyl)-piperidin-4-yl]-furo[2,3-c]pyridine] gave a concentration for a half-maximal effect (EC50) of 0.051 µM. For `CC(C)(C)OC(=O)N1CCC(c2cc3cc(-c4ccc(C#N)c(F)c4)ncc3o2)CC1` [Example 5, 4-[5-(4-Cyano-3-fluoro-phenyl)-furo[2,3-c]pyridin-2-yl]-piperidine-1-carboxylic acid tert-butyl ester], it took 0.263 µM to reach a half-maximal effect (EC50).

`CS(=O)(=O)N1CC=C(c2cc3cc(C4CCN(c5nnc(C(F)(F)F)s5)CC4)oc3cn2)CC1` [Example 26, 5-(1-Methanesulfonyl-1,2,3,6-tetrahydro-pyridin-4-yl)-2-[1-(5-trifluoromethyl-[1,3,4]thiadiazol-2-yl)-piperidin-4-yl]-furo[2,3-c]pyridine] returned an EC50 of 0.018 µM. In turn, `CC(C)(C)OC(=O)N1CCC(C)(c2cc3cc(-c4ccc(S(C)(=O)=O)cc4)ncc3o2)CC1` [Example 27, 4-[5-(4-Methanesulfonyl-phenyl)-furo[2,3-c]pyridin-2-yl]-4-methyl-piperidine-1-carboxylic acid tert-butyl ester] showed an EC50 of 0.14 µM. On to `CC(C)(C)OC(=O)N1CCC(c2cc3cc(-c4ccc(C(=O)OCc5ccccc5)cc4)ncc3o2)CC1` [Example 9, 4-[5-(4-Benzyloxycarbonyl-phenyl)-furo[2,3-c]pyridin-2-yl]-piperidine-1-carboxylic acid tert-butyl ester], for which a half-maximal response (EC50) required 0.567 µM.

Take `CC(C)(C)OC(=O)N1CCC(c2cc3cc(-c4ccc(CS(C)(=O)=O)cc4)ncc3o2)CC1` [Example 12, 4-[5-(4-Methanesulfonylmethyl-phenyl)-furo[2,3-c]pyridin-2-yl]-piperidine-1-carboxylic acid tert-butyl ester]: the EC50 was determined as 0.105 µM.

Compound `CC(C)OC(=O)N1CCC(c2cc3cc(-c4ccc(S(C)(=O)=O)cc4F)ncc3o2)CC1` [Example 19, 4-[5-(2-Fluoro-4-methanesulfonyl-phenyl)-furo[2,3-c]pyridin-2-yl]-piperidine-1-carboxylic acid isopropyl ester] returned an EC50 of 0.012 µM. Turning to `CC(C)(F)CN1CCC(c2cc3cc(-c4ccc(S(C)(=O)=O)cc4F)ncc3o2)CC1` [Example 18, 5-(2-Fluoro-4-methanesulfonyl-phenyl)-2-[1-(2-fluoro-2-methyl-propyl)-piperidin-4-yl]-furo[2,3-c]pyridine], the concentration giving a half-maximal response (EC50) was 0.079 µM. For the compound `CC(C)(C)OC(=O)N1CCC(c2cc3cc(-c4ccc(NS(C)(=O)=O)cc4)ncc3o2)CC1` [Example 4, 4-[5-(4-Methanesulfonylamino-phenyl)-furo[2,3-c]pyridin-2-yl]-piperidine-1-carboxylic acid tert-butyl ester], the EC50 worked out at 0.121 µM. This EC50 lies about 1.5-fold higher than the previous one. The result for `CC(C)OC(=O)N1CCC(c2cc3cc(C4=CCN(S(C)(=O)=O)CC4)ncc3o2)CC1` [Example 21, 4-[5-(1-Methanesulfonyl-1,2,3,6-tetrahydro-pyridin-4-yl)-furo[2,3-c]pyridin-2-yl]-piperidine-1-carboxylic acid isopropyl ester] reads 0.019 µM; that for `CC(C)(C)OC(=O)N1CCC(c2cc3cc(N4CCN(S(C)(=O)=O)CC4)ncc3o2)CC1` [Example 13, 4-[5-(4-Methanesulfonyl-piperazin-1-yl)-furo[2,3-c]pyridin-2-yl]-piperidine-1-carboxylic acid tert-butyl ester], 0.082 µM; that for `CC(C)(C)OC(=O)N1CCC(c2cc3cc(-c4ccc(S(C)(=O)=O)cc4F)ncc3o2)CC1` [Example 3, 4-[5-(2-Fluoro-4-methanesulfonyl-phenyl)-furo[2,3-c]pyridin-2-yl]-piperidine-1-carboxylic acid tert-butyl ester], 0.009 µM. The result for `CC1(OC(=O)N2CCC(c3cc4cc(-c5ccc(S(C)(=O)=O)cc5F)ncc4o3)CC2)CC1` [Example 20, 4-[5-(2-Fluoro-4-methanesulfonyl-phenyl)-furo[2,3-c]pyridin-2-yl]-piperidine-1-carboxylic acid 1-methyl-cyclopropyl ester] reads 0.013 µM; that for `CC(C)(C)OC(=O)N1CCC(c2cc3cc(-c4ccncc4F)ncc3o2)CC1` [Example 15, 4-[5-(3-Fluoro-pyridin-4-yl)-furo[2,3-c]pyridin-2-yl]-piperidine-1-carboxylic acid tert-butyl ester], 0.233 µM.

`CC(C)(C)OC(=O)N1CCC(c2cc3cc(-c4cnco4)ncc3o2)CC1` [Example 10, 4-(5-Oxazol-5-yl-furo[2,3-c]pyridin-2-yl)-piperidine-1-carboxylic acid tert-butyl ester] had an EC50 of 0.592 µM.

With `CCc1cnc(N2CCC(c3cc4cc(-c5ccc(S(C)(=O)=O)cc5F)ncc4o3)CC2)nc1` [Example 16, 2-[1-(5-Ethyl-pyrimidin-2-yl)-piperidin-4-yl]-5-(2-fluoro-4-methanesulfonyl-phenyl)-furo[2,3-c]pyridine], the 50% effective concentration (EC50) came out at 0.064 µM. This EC50 is about 9.2-fold lower than that of the compound before. Compound `CS(=O)(=O)N1CC=C(c2cc3cc(C4CCN(CC5(C(F)(F)F)CC5)CC4)oc3cn2)CC1` [Example 24, 5-(1-Methanesulfonyl-1,2,3,6-tetrahydro-pyridin-4-yl)-2-[1-(1-trifluoromethyl-cyclopropylmethyl)-piperidin-4-yl]-furo[2,3-c]pyridine] yielded an EC50 of 0.028 µM. Compared with the last compound, the EC50 is about 2.3-fold lower. In turn, `CC(C)(C)OC(=O)N1CCC(c2cc3cc(-c4ccncc4)ncc3o2)CC1` [Example 11, 4-(5-Pyridin-4-yl-furo[2,3-c]pyridin-2-yl)-piperidine-1-carboxylic acid tert-butyl ester] had an EC50 of 0.31 µM. The result for `CS(=O)(=O)N1CC=C(c2cc3cc(C4CCN(c5ncc(Cl)cn5)CC4)oc3cn2)CC1` [Example 25, 2-[1-(5-Chloro-pyrimidin-2-yl)-piperidin-4-yl]-5-(1-methanesulfonyl-1,2,3,6-tetrahydro-pyridin-4-yl)-furo[2,3-c]pyridine] reads 0.041 µM.

The compound `CS(=O)(=O)N1CC=C(c2cc3cc(C4CCN(c5ccc(C(F)(F)F)cn5)CC4)oc3cn2)CC1` [Example 23, 4-[5-(1-Methanesulfonyl-1,2,3,6-tetrahydro-pyridin-4-yl)-furo[2,3-c]pyridin-2-yl]-5′-trifluoromethyl-3,4,5,6-tetrahydro-2H-[1,2′]bipyridinyl] showed a concentration for a half-maximal effect (EC50) of 0.086 µM.

Compound `CC(C)(C)OC(=O)N1CCC(c2cc3cc(-c4ccc(C(N)=O)cc4F)ncc3o2)CC1` [Example 7, 4-[5-(2-Fluoro-4-aminocarbonyl-phenyl)-furo[2,3-c]pyridin-2-yl]-piperidine-1-carboxylic acid tert-butyl ester] showed an EC50 of 0.108 µM. On to `CC1(OC(=O)N2CCC(c3cc4cc(C5=CCN(S(C)(=O)=O)CC5)ncc4o3)CC2)CC1` [Example 22, 4-[5-(1-Methanesulfonyl-1,2,3,6-tetrahydro-pyridin-4-yl)-furo[2,3-c]pyridin-2-yl]-piperidine-1-carboxylic acid 1-methyl-cyclopropyl ester], for which the midpoint of the response, the EC50, lay at 0.01 µM.
